Test results reported in US4968494A, “Methods and compositions for thrombolytic therapy” (Merck & Co., Inc., priority 1990, dated 1990).

Tests used:
[1] = test system: blood clots; assay: in vitro clot lysis assay (TPA-catalyzed lysis of ^125 I-fibrin labelled clot); format: biochemical; conditions: 200 μM cerulenin, buffer pH 7.5
Experimental: In the assay, whole blood or plasma is charged with ^125 I-fibrinogen. Thrombin is added to initiate clot formation and subsequently incubated for 2 hours to complete the cross-linking by endogenous Factor XIII. Factor XIIIa inhibitor is added prior to clot initiation or at various times during the 2-hour incubation. At the end of this period, the labelled clot is washed and lysis is initiated by exogenous tissue plasminogen activator (TPA). Exogenous plasminogen is employed in some experiments. Endogenous plasminogen is used for others. Clot dissolution as a function of time is monitored by the release of solubilized ^125 I-fibrin-derived fragments.
In FIGS. 1 and 2, the open symbols indicate absence of cerulenin and the closed symbols indicate the presence of 200μM cerulenin at the time of clot formation. Clot lysis is conducted in buffer, pH 7.5; 5 ng/mL TPA represents approximate physiologic concentration. 50 to […] represents pharmacologic concentration range. […] FIG. 2 studies employed glu-plasminogen levels at approximately 10 percent physiologic level (12μ/mL)

[2] = target: T1, Factor XIIIa (Homo sapiens, UniProt P00488); assay: Factor XIIIa inhibitor assay (incorporation of ^14 C-putrescine into casein catalyzed by Factor XIIIa); format: biochemical; conditions: read-out: Percent Inhibition
T1 construct: from tissue; host or cells: human plasma
T1 sequence (P00488 39-732 limits assumed): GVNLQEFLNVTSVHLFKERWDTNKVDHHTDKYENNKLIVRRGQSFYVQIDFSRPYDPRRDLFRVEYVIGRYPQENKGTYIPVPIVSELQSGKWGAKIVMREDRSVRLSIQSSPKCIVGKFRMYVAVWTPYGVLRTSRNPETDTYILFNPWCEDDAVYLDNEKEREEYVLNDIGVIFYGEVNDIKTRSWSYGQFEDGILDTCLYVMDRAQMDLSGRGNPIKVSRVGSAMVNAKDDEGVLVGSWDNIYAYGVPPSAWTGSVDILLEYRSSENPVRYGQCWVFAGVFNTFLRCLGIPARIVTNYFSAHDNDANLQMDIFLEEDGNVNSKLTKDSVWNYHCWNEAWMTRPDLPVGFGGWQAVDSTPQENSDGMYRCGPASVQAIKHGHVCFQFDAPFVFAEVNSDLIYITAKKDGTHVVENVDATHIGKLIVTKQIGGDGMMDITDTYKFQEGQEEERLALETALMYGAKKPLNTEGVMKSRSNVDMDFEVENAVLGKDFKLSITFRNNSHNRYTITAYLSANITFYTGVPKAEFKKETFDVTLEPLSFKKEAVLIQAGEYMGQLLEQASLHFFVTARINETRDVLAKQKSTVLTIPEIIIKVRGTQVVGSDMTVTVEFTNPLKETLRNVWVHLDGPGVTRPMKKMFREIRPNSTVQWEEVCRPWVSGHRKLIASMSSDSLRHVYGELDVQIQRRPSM
Experimental: The Factor XIIIa inhibitor assay is based on the incorporation of ^14 C-putrescine into casein catalyzed by Factor XIIIa. The assay is carried out employing the procedure described in Methods in Enzymology, Vol. 45, Ch 15., pages 177-191 (1976) and using Factor XIII (F XIII) isolated from human plasma. The procedure is summarized briefly and schematically illustrated as follows: [drawing 16]
Factor XIII assay mixtures are prepared by adding stepwise, appropriate prepared solutions of thrombin and dithiothreitol (DTT) to a mixture comprising Factor XIII in glycerol/water and tris(hydroxymethyl)aminomethane hydrochloride (Tris.cndot.HCl). To a portion of the mixture is added calcium chloride as source of calcium ions required for enzyme activity and to the remaining mixture is added instead of calcium ions ethylenediaminetetracetic acid (EDTA) which serves as a blank for background.
A substrate mixture is prepared from ^14 C-putrescine and […].
The assay tubes and control tubes are charged with the substrate mixture and incubated at 37° C. for 220 minutes. Samples are withdrawn from each tube, spotted onto a filter disk which is then immersed in ice cold trichloroacetic acid solution to precipitate the casein on the filter. The filter is then washed to remove unincorporated or free ^14 C-putrescine and after drying is counted for ^14 C-putrescine incorporated to casein from which percent activity and/or inhibition can be calculated.

SMILES	lysis rates ([1]; 12 μg/mL exogenous glu-plasminogen, TPA, FIG. 2)	rates and extents of lysis ([1]; no exogenous plasminogen, physiological and pharmacological levels of TPA, FIG. 1)	inhibition at 62 µM ([2]; 6.2 × 10^-5 M)	inhibition at 6.2 µM ([2]; 6.2 × 10^-6 M)	inhibition at 0.62 µM ([2]; 6.2 × 10^-7 M)	inhibition at 13 µM ([2]; 1.3 × 10^-5 M)	inhibition at 1.5 µM ([2]; 1.5 × 10^-6 M)	inhibition at 0.17 µM ([2]; 1.7 × 10^-7 M)	inhibition at 4.5 µM ([2]; 4.5 × 10^-6 M)	inhibition at 0.5 µM ([2]; 5 × 10^-7 M)
C/C=C/C/C=C/CCC(=O)[C@H]1O[C@H]1C(N)=O [Cerulenin, (2R,3S)-2,3-epoxy-4-oxo-7E,10E-dodecadienamide]	lysis rates were further enhanced	enhanced rates and extents of lysis	100%	64%	22%					
O=C(O)C=Cc1nc2ccccc2[nH]1 [3-(Benzimidazol-2-yl)-acrylic acid, 3-(benzimidazol-2-yl)acrylic acid]						91%	52%	9%	78%	19%
